From US5206247A, “Spiro(4.5.)decane compounds” (Adir Et Compagnie, priority 1990, dated 1993)

Experiments:
human LDLs [1] = experiment: Modification of the LDLs by endothelial cells (MDA formation); assay type: cell-based; details: for times more powerful than probucol (endothelial cells): test using endothelial cells; for ability to protect human LDLs compared with probucol or vitamin E, endothelial cells: modifications induced by endothelial cells; for IC50: oxidation by rabbit aorta endothelial cells, 24 hours, read-out: IC50 EC (inhibition of lipid peroxidation of human LDLs, MDA production)
Protocol: Human LDLs are incubated for 24 hours in the presence of rabbit aorta endothelial cells (line RECL B4 supplied by Professor Steinberg, USA) and in the absence or presence of the test compounds (10^-7 M to 10^-4 M).
After incubation, the peroxidation of the LDLs is evaluated by electrophoresis on agar gel and by the formation of one of the products of lipid peroxidation: malonic dialdehyde (MDA) (Steinbrecher U.P., Parthasarathy S, Leake D. S., Witztum J. L., and Steinberg D., Proc. Nat. Acad. Sci. USA 81. 3883-3887, 1984).
The activity of the test compounds is evaluated by calculating the concentrations that reduce the production of MDA by 50% (IC50) compared with the control experiments carried out in the absence of test compound.
(§1) Table A lists the IC50 values, which indicate the capacity to inhibit the lipid peroxidation of human LDLs, obtained with a sample of the compounds of the invention and of the reference compounds probucol and vitamin E, in two tests causing the development of the oxidation of the LDLs: by copper sulphate (Cu^2+) or by endothelial cells (EC).

human LDLs [2] = experiment: Modification of the LDLs by copper sulphate (MDA formation); assay type: biochemical; details: for IC50: oxidation by copper sulphate, 24 hours, read-out: IC50 Cu^2+ (inhibition of lipid peroxidation of human LDLs, MDA production); for ability to protect human LDLs compared with probucol or vitamin E, copper sulphate: modifications induced by copper sulphate
Protocol: Human LDLs are incubated for 24 hours in the presence of copper sulphate (5×10^-5 M or 5×10^-6 M) and in the absence or presence of the test compounds (10^-7 M to 10^-4 M).
After incubation, the peroxidation of the LDLs is evaluated by electrophoresis on agar gel and by the formation of one of the products of lipid peroxidation: malonic dialdehyde (MDA) (Parthasarathy S., Young S. G., Witztum J. L., Pittman R. C., and Steinberg D.; J. Clin. Invest. 77, 641-644, 1986).
The activity of the test compounds is evaluated by calculating the concentrations that reduce the production of MDA by 50% (IC50) compared with control experiments carried out in the absence of test compound.
as §1

cardiac cells = experiment: Oxidative necrosis of cardiac cells induced by hypoxanthine/xanthine oxidase; assay type: cell-based, new-born rats; details: for effect on oxidative necrosis of cardiac cells compared with reference compounds: 10^-6 M and 10^-5 M; for activity at 10 µM / activity at 1 µM / activity at 0.1 µM / index of necrosis of cardiac cells: control = 100, means ± sem; for activity at 10 µM / activity at 1 µM / activity at 0.1 µM: read-out: index of necrosis of cardiac cells; for inhibition at 10 µM / inhibition at 1 µM: Cardiomyocyte, read-out: reduction of oxidative necrosis of cardiomyocytes; for index of necrosis of cardiac cells: 240 min
Protocol: Cardiac cells of new-born rats are used between the 5th and 6th days after placing in a culture. Oxidative necrosis is induced by the enzymatic system hypoxanthine (HX, 1 mM) and xanthine oxidase (XO, 10 mU/ml), which produces free radicals. The necrosis is evaluated 4 hours after the addition of XO/HX by the spectrophotometric measurement of the cytosolic α-hydroxybutyrate dehydrogenase (α-HBDH) activity liberated in the supernatant. Two reference molecules (probucol, vitamin E) and 3 molecules representative of the present invention (corresponding to Examples 1, 3 and 4) were tested. The cells are treated with the molecules 16 hours and 1 hour before the beginning of the experiment after renewing the medium. At the beginning of the experiment, the treatment is carried out one last time.
Table B lists the indices of the necrosis of cardiac cells induced by the system hypoxanthine/xanthine oxidase on its own or in the presence of increasing concentrations of the compounds of the invention or of the reference compounds: probucol and vitamin E.
The necrosis index 100 corresponds to a liberation of 43.6±1.0% in 4 hours of the cytosolic content of α-HBDH in the supernatant.
The results are expressed in the form of means ± sem (4≤n≤5, 3 repetitions per experiment).

[3] = test system: LDLs of the Watanabe rabbits; experiment: Ex vivo copper sulphate oxidation of LDLs from orally treated Watanabe rabbits (MDA production); assay type: in vivo; details: for MDA production: 3 days
Protocol: Watanabe rabbits ([…] hyperlipidaemic rabbits) are used that range in weight from 3 kg to 5 kg. The animals are treated orally with the carrier of the test compounds (control group) or with the test compounds at doses of 10, 50 and 250 mg/kg/day for 3 days.
When the treatment is complete, the LDLs of the animals are prepared by ultracentrifugation and subjected to oxidation with copper sulphate (5×10^-6 M). The lipid peroxidation of the LDLs is evaluated after various periods of incubation with copper sulphate (from 2 to 24 hours) by measuring the formation of MDA.
Table C lists the MDA production values according to the incubation period with copper sulphate of those LDLs originating from the control animals and those originating from the animals treated with the compounds of Examples 1, 3 and 31 at different doses or with probucol.

[4] = Rattus norvegicus, 4 h, 10^-5 M
[5] = Rattus norvegicus, 4 h, 10^-6 M
[6] = Rattus norvegicus, 4 h, 10^-7 M
[7] = 50 mg/kg/day oral, 2 hours incubation with copper sulphate
[8] = 50 mg/kg/day oral, 4 hours incubation with copper sulphate
[9] = 50 mg/kg/day oral, 6 hours incubation with copper sulphate
[10] = 50 mg/kg/day oral, 8 hours incubation with copper sulphate
[11] = 50 mg/kg/day oral, 24 hours incubation with copper sulphate
[12] = 250 mg/kg/day oral, 2 hours incubation with copper sulphate
[13] = 250 mg/kg/day oral, 4 hours incubation with copper sulphate
[14] = 250 mg/kg/day oral, 6 hours incubation with copper sulphate
[15] = 250 mg/kg/day oral, 8 hours incubation with copper sulphate
[16] = 250 mg/kg/day oral, 24 hours incubation with copper sulphate
[17] = oral, peroxidation induced by copper sulphate

Row | Compound | times more powerful than probucol (endothelial cells) (human LDLs [1]) | IC50 (human LDLs [2]) | activity at 10 µM (cardiac cells; [4]) | activity at 1 µM (cardiac cells; [5]) | activity at 0.1 µM (cardiac cells; [6]) | ability to protect human LDLs compared with probucol or vitamin E, endothelial cells (human LDLs [1]) | ability to protect human LDLs compared with probucol or vitamin E, copper sulphate (human LDLs [2]) | MDA production [3, 12] | MDA production [3, 13] | MDA production [3, 14] | MDA production [3, 15] | MDA production [3, 16] | IC50 (human LDLs [1]) | further results
1 | Cc1cc(SCC(O)CN2CCC3(CC2)CNC(=O)O3)c(C)c(C)c1O (stereo not drawn) [Example 32] | 100 times | 300 nM |  |  |  |  |  |  |  |  |  |  |  | 
2 | Cc1c(C)c2c(c(C)c1O)CCC(C)(CCCN1CCC3(CC1)CNC(=O)O3)O2 (stereo not drawn) [Example 34] |  | 300 nM |  |  |  |  |  |  |  |  |  |  |  | 
3 | Cc1cc(OCCCCCN2CCC3(CC2)CNC(=O)O3)c(C)c(C)c1O [Example 30] |  | 300 nM |  |  |  |  |  |  |  |  |  |  |  | 
4 | CC(C)(C)c1cc(SCCCN2CCC3(CC2)CNC(=O)O3)cc(C(C)(C)C)c1O [Example 3] | 100 times | 300 nM | 4.2 ± 2.7% | 12 ± 4.4% | 60.6 ± 17.1% | greater ability | greater ability | 0.66 nM/mg proteins | 0 nM/mg proteins | 0 nM/mg proteins | 0.69 nM/mg proteins | 0.91 nM/mg proteins |  | effect on oxidative necrosis of cardiac cells compared with reference compounds (cardiac cells): distinctly superior to the reference compounds; inhibition at 10 µM (cardiac cells; [4]): > 95%; inhibition at 1 µM (cardiac cells; [5]): > 80%; MDA production ([3]; 10 mg/kg/day oral, 2 hours incubation with copper sulphate): 1.27 nM/mg proteins; MDA production ([3]; 10 mg/kg/day oral, 4 hours incubation with copper sulphate): 0.27 nM/mg proteins; MDA production ([3]; 10 mg/kg/day oral, 6 hours incubation with copper sulphate): 3.29 nM/mg proteins; MDA production ([3]; 10 mg/kg/day oral, 8 hours incubation with copper sulphate): 6.85 nM/mg proteins; MDA production ([3]; 10 mg/kg/day oral, 24 hours incubation with copper sulphate): 22.78 nM/mg proteins; MDA production [3, 7]: 0.16 nM/mg proteins; MDA production [3, 8]: 0 nM/mg proteins; MDA production [3, 9]: 1.06 nM/mg proteins; MDA production [3, 10]: 1.44 nM/mg proteins; MDA production [3, 11]: 7.30 nM/mg proteins; dose from which particularly effective [3, 17]: ≥ 10 mg/kg/day; dose from which peroxidation of the LDLs is inhibited [3, 17]: ≥ 50 mg/kg/day
5 | CC(C)(CCN1CCC2(CC1)CNC(=O)O2)Sc1cc(C(C)(C)C)c(O)c(C(C)(C)C)c1 [Example 31] |  | 800 nM |  |  |  | greater ability | greater ability | 0.19 nM/mg proteins | 0.51 nM/mg proteins | 0.16 nM/mg proteins | 0.71 nM/mg proteins | 0.99 nM/mg proteins | 20 nM | MDA production [3, 7]: 0.33 nM/mg proteins; MDA production [3, 8]: 0.72 nM/mg proteins; MDA production [3, 9]: 1.03 nM/mg proteins; MDA production [3, 10]: 1.04 nM/mg proteins; MDA production [3, 11]: 3.16 nM/mg proteins; dose from which peroxidation of the LDLs is inhibited [3, 17]: ≥ 50 mg/kg/day
6 | CC(C)(C)c1cc(SCCCCCN2CCC3(CC2)CNC(=O)O3)cc(C(C)(C)C)c1O [Example 4] | 100 times | 800 nM | 2.6 ± 0.7% | 2.1 ± 1% | 79.1 ± 8% | greater ability | greater ability |  |  |  |  |  | 20 nM | effect on oxidative necrosis of cardiac cells compared with reference compounds (cardiac cells): distinctly superior to the reference compounds; inhibition at 10 µM (cardiac cells; [4]): > 95%; inhibition at 1 µM (cardiac cells; [5]): > 80%
7 | CC(C)(Sc1cc(C(C)(C)C)c(O)c(C(C)(C)C)c1)Sc1cc(C(C)(C)C)c(O)c(C(C)(C)C)c1 [probucol, reference compound] |  | 3000 nM | 26.6 ± 6.3% | 68.8 ± 3.9% | 103 ± 2% |  |  | 1.85 nM/mg proteins | 3.50 nM/mg proteins | 4.90 nM/mg proteins | 12.26 nM/mg proteins | 23.81 nM/mg proteins | 4000 nM | retardation of peroxidation of the LDLs compared with control animals ([3]; oral treatment of Watanabe rabbits): approximately 2 hours
8 | Cc1c(C)c2c(c(C)c1O)CCC(C)(CCN1CCC3(CC1)CNC(=O)O3)O2 (stereo not drawn) [Example 33] |  | 300 nM |  |  |  |  |  |  |  |  |  |  |  | 
9 | vitamin E [reference compound] |  | > 100000 nM |  |  |  |  |  |  |  |  |  |  | 4000 nM | index of necrosis of cardiac cells (cardiac cells; 10^-5 M, 10 µM): 61.1 ± 2.5; index of necrosis of cardiac cells (cardiac cells; 10^-6 M, 1 µM): 79.0 ± 7.4; index of necrosis of cardiac cells (cardiac cells; 10^-7 M, 0.1 µM): 83.5 ± 8.0
10 | CC(C)(C)c1cc(OCCCCCN2CCC3(CC2)CNC(=O)O3)cc(C(C)(C)C)c1O [Example 5] |  | 700 nM |  |  |  | greater ability | greater ability |  |  |  |  |  | 800 nM | 
11 | CC(C)(C)c1cc(SCC(O)CN2CCC3(CC2)CNC(=O)O3)cc(C(C)(C)C)c1O (racemic) [Example 1, (R,S)-8-[3-(3,5-di-tert.-butyl-4-hydroxyphenylthio)-2-hydroxypropyl]-1-oxa-2-oxo-3,8-diazaspiro[4.5]decane] | 100 times |  | 3.8 ± 1.9% | 19.1 ± 7.3% | 42.8 ± 11.3% | greater ability | greater ability | 0.2 nM/mg proteins | 1.27 nM/mg proteins | 0 nM/mg proteins | 0 nM/mg proteins | 1.02 nM/mg proteins |  | effect on oxidative necrosis of cardiac cells compared with reference compounds (cardiac cells): distinctly superior to the reference compounds; inhibition at 0.1 µM (cardiac cells; Rattus norvegicus, 4 h, starting from 10^-7 M, read-out: protective effect on oxidative necrosis of cardiac cells): > 50%; inhibition at 10 µM (cardiac cells; [4]): > 95%; inhibition at 1 µM (cardiac cells; [5]): > 80%; dose from which peroxidation of the LDLs is inhibited [3, 17]: ≥ 50 mg/kg/day
12 | CC(C)(C)c1cc(OCC(O)CN2CCC3(CC2)CNC(=O)O3)cc(C(C)(C)C)c1O (stereo not drawn) [Example 7] |  | 2000 nM |  |  |  |  |  |  |  |  |  |  |  | 
13 | CC(C)(C)c1cc(OCCCN2CCC3(CC2)CNC(=O)O3)cc(C(C)(C)C)c1O [Example 6] |  | 300 nM |  |  |  | greater ability | greater ability |  |  |  |  |  | 300 nM | 
